Experiments:
[1] = target: Sodium-dependent serotonin transporter (Homo sapiens, UniProt P31645); assay: Binding affinity at 5-HT reuptake site labeled with [3H]paroxetine
[2] = target: T1, 5-hydroxytryptamine receptor 1A (Homo sapiens, UniProt P08908); assay: Binding affinity was evaluated at 5-hydroxytryptamine 1A receptor labeled with [3H]-8-OH-DPAT
T1 sequence (P08908 whole entry): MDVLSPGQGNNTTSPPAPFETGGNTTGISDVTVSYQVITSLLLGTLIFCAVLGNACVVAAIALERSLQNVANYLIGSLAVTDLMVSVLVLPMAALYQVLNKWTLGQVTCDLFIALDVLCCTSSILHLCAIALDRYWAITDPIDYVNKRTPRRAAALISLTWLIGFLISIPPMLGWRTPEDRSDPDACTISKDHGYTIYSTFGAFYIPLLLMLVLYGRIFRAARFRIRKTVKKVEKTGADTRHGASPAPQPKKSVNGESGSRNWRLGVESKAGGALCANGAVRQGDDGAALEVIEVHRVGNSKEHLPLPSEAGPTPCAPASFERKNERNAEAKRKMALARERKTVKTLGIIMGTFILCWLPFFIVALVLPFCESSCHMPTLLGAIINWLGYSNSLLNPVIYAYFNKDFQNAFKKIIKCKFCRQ

[3] = target: T2, 5-hydroxytryptamine receptor 1A (Homo sapiens) (UniProt P08908); assay: Evaluated for stimulation at 1 uM concentration expressed as percent of the maximal [35S]GTP-gamma-S, binding induced by 5-hydroxytryptamine; format: functional
T2 sequence (whole entry): T1 sequence (P08908 whole entry)

Sodium-dependent serotonin transporter, sequence (P31645 whole entry): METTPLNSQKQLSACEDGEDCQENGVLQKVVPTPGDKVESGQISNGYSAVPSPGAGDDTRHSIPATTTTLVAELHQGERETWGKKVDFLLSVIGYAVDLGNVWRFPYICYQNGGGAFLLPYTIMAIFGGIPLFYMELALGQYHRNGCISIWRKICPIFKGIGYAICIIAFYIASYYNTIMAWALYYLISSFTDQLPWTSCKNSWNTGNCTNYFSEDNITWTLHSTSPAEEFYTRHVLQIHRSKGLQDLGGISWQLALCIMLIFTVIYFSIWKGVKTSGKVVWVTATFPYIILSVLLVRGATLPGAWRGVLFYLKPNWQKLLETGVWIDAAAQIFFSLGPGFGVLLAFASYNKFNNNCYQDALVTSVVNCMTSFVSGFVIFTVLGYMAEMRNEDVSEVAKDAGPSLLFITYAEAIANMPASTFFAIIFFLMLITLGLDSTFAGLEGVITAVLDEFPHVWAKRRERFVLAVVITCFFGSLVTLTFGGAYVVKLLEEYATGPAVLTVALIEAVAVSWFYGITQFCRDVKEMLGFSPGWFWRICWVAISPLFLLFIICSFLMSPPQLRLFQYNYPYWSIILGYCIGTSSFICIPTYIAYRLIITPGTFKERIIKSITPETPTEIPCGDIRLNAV

| SMILES | Ki [1] [nM] | Ki [2] [nM] | Emax [3] [%] |
| --- | --- | --- | --- |
| Cc1cc2c(OC[C@H](O)CN3CC[C@@H](c4cccc5sccc45)C[C@@H]3C)cccc2[nH]1 | 4.35 | 1.82 | 15 |
| Cc1cc2c(OC[C@@H](O)CN3CC[C@@H](c4cccc5ccsc45)C[C@@H]3C)cccc2[nH]1 | 9.24 | 0.91 | 8 |
| Cc1cc2c(OC[C@@H](O)CN3CC[C@@H](c4ccc5c(C)csc5c4)C[C@@H]3C)cccc2[nH]1 | 0.58 | 7.82 | 4 |
| Cc1cc2c(OC[C@H](O)CN3CC[C@@H](c4ccc5occc5c4)C[C@@H]3C)cccc2[nH]1 | 1.69 | 1.39 | 9 |
| O[C@@H](COc1cccc2[nH]ccc12)CN1CCC(c2cc3ccccc3s2)CC1 | 16.7 | 3.7 | 12 |
| COc1cccc2sc([C@@H]3CCN(C[C@H](O)COc4cccc5[nH]c(C)cc45)[C@@H](C)C3)cc12 | 0.86 |  | 3 |
| Cc1cc2c(OC[C@@H](O)CN3CC[C@@H](c4ccc5ccoc5c4)C[C@@H]3C)cccc2[nH]1 | 3.77 | 1.05 | 6 |
| O[C@@H](COc1cccc2[nH]ccc12)CN1CCC(c2csc3ccccc23)CC1 |  | 1.84 |  |
| Cc1cc2c(OC[C@@H](O)CN3CC[C@@H](c4ccc5ccsc5c4)C[C@@H]3C)cccc2[nH]1 | 0.75 | 4.45 | 12 |
| Cc1cc2c(OC[C@@H](O)CN3CC[C@@H](c4cccc5occc45)C[C@@H]3C)cccc2[nH]1 | 7.18 | 1.23 | 8 |

Now from value to compound:

| Ki [1] [nM] | Ki [2] [nM] | Emax [3] [%] | SMILES |
| --- | --- | --- | --- |
| 0.34 | 10.9 | 11 | COc1cccc2ccc([C@@H]3CCN(C[C@H](O)COc4cccc5[nH]c(C)cc45)[C@@H](C)C3)cc12 |
| 0.4 | 5.11 | 9 | Cc1cc2c(OC[C@@H](O)CN3CC[C@@H](c4ccc5ccccc5c4)C[C@@H]3C)cccc2[nH]1 |
| 0.3 | 1.43 | 12 | Cc1cc2c(OC[C@H](O)CN3CC[C@@H](c4ccc5sccc5c4)C[C@@H]3C)cccc2[nH]1 |
| 0.53 |  |  | Cc1cc2c(OC[C@@H](O)CN3CC[C@@H](c4cc5ccccc5s4)C[C@@H]3C)cccc2[nH]1 |
| 0.54 | 3.12 | 8 | Cc1cc2c(OC[C@@H](O)CN3CC[C@@H](c4ccc5scc(C)c5c4)C[C@@H]3C)cccc2[nH]1 |
